Target: T1, OTU domain-containing protein 7B (Homo sapiens, UniProt Q6GQQ9)
T1 sequence (Q6GQQ9 whole entry): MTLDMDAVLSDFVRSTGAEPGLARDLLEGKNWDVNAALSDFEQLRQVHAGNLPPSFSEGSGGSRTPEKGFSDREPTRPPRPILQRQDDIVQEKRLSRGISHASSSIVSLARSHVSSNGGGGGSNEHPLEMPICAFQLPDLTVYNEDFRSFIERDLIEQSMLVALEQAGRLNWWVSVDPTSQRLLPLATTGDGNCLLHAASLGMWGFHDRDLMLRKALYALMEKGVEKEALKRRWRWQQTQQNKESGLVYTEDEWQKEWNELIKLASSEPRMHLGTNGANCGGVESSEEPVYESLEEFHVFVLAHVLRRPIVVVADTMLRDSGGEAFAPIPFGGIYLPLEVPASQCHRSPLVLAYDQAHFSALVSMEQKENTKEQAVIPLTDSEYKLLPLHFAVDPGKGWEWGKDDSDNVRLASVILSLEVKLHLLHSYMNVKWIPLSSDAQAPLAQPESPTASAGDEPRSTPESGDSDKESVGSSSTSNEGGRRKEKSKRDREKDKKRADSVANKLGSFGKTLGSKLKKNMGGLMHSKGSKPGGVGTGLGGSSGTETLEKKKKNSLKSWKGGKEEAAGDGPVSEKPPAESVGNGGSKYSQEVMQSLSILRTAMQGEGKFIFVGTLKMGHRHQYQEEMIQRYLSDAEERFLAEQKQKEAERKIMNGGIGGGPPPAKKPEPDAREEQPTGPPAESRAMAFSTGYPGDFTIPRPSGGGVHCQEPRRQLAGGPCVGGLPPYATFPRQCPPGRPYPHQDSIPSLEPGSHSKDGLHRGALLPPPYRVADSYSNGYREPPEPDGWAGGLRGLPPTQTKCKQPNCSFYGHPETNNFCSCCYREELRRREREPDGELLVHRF
Experiment: Biochemical Assay: Dilution plates were prepared at 21 times the final concentration (2100 μM for a final concentration of 100 μM) in 50% DMSO in a 96-well polypropylene V-bottom plate (Greiner #651201). A typical 8-point dilution series to be 100, 30, 10, 3, 1, 0.3, 0.1, 0.03 μM final. Reactions were performed in duplicate in black 384 well plates (small volume, Greiner 784076) in a final reaction volume of 21 μl. Either 1 μl of 50% DMSO or diluted compound was added to the plate. Cezanne 1 was diluted in reaction buffer (40 mM Tris, pH 7.5, 0.005% Tween 20, 0.5 mg/ml BSA, 5 mM-beta-mercaptoethanol) to the equivalent of 0.005 μl/well and 10 μl of diluted Cezanne 1 was added to the compound. Enzyme and compound were incubated for 30 min at room temp. Reactions were initiated by the addition of 50 nM of TAMRA labelled peptide linked to ubiquitin via an iso-peptide bond as fluorescence polarisation substrate. Reactions were read immediately after addition of substrate and following a 2 hr incubation at room temperature. Readings were performed on a Pherastar Plus. λ Excitation 540 nm; λ Emission 590 nm.

- IC50: < 100 nM
Structure (SMILES): Cc1ccc2[nH]ncc2c1-c1cnc2c(c1)NC(=O)C1(CCN(C#N)C1)N2 (stereo unspecified)

— ChEMBL document CHEMBL5727708, “Spiro-condensed pyrrolidine derivatives as deubiquitylating enzymes (DUB) inhibitors” (2020)
